Experimental findings from ChEMBL document CHEMBL5046240, “Design, synthesis, and evaluation of potent RIPK1 inhibitors with in vivo anti-inflammatory activity” (Eur J Med Chem, 2022) are described below.

Calls of active or inactive are those of the source. The rule behind the calls is not given here.

A short description of data set [1]: Cmax in Sprague-Dawley rat at 2 mg/kg, iv measured upto 24 hrs by LC-MS/MS analysis. It is filed as ADME, organism-based. More on the design: route intravenous, dose 2 mg/kg, time <=24. The settings on record: in vivo.
Data set [2] has as its system HT-29. Description: Anti-necroptic activity in human HT-29 cells assessed as TNFalpha/Z-VAD (TSZ) induced necroptosis by measuring cell viability preincubated for 1 hr followed by TSZ addition ans measured after 24 hrs by celltiter-glo luminescent cell viability assay. It counts as functional, cell-based.
Data set [3] deals with L929. Description: Anti-necroptic activity in mouse L929 cells assessed as TNFalpha/Z-VAD (TSZ) induced necroptosis by measuring cell viability preincubated for 1 hr followed by TSZ addition and measured after 24 hrs by celltiter-glo luminescent cell viability assay. It counts as functional, cell-based.
Data set [4] can be described thus: Metabolic stability in human liver microsomes assessed as half life by LC-MS/MS analysis. It is filed as ADME. For orientation: Liver microsomes are a subcellular fraction often used to study metabolism.
In data set [5] the target is CYP2C9 (Homo sapiens, UniProt P11712). Briefly: Inhibition of CYP2C9 (unknown origin) using tolbutamide as cocktail probe substrate at 10 uM preincubated for 20 mins followed by substrate addition and measured after 20 mins by LC-MS/MS analysis relative to control. It is filed as ADME. The settings on record: time 40 min.
The target in data set [6] is CYP2C19 (Homo sapiens, UniProt P33261). Description: Inhibition of CYP2C19 (unknown origin) using cocktail of probe as substrate at 10 uM preincubated for 20 mins followed by substrate addition and measured after 20 mins by LC-MS/MS analysis relative to control. As to conditions: time 40 min. It counts as ADME.
Data set [7] deals with CYP2D6 (Homo sapiens, UniProt P10635). Briefly: Inhibition of CYP2D6 (unknown origin) using dextromethorphan as cocktail probe substrate at 10 uM preincubated for 20 mins followed by substrate addition and measured after 20 mins by LC-MS/MS analysis relative to control. It counts as ADME. As to conditions: time 40 min.
Data set [8] has as its target CYP3A4 (Homo sapiens, UniProt P08684). Description: Inhibition of CYP3A4 (unknown origin) using midazolam as cocktail probe substrate at 10 uM preincubated for 20 mins followed by substrate addition and measured after 20 mins by LC-MS/MS analysis relative to control. It is filed as ADME. As to conditions: time 40 min.
Data set [9] in a line: Protein binding in human plasma by LC-MS/MS based equilibrium dialysis method. It is filed as ADME, cell-free. The settings on record: read-out: PPB (converted). (In general: Equilibrium dialysis compares concentrations on both sides of a semipermeable membrane.)
Data set [10] in a line: Tmax in Sprague-Dawley rat at 10 mg/kg, po measured upto 24 hrs by LC-MS/MS analysis. It is filed as ADME, organism-based. The settings on record: in vivo.
Data set [11] in a line: AUC (0 to 24 hrs) in Sprague-Dawley rat at 10 mg/kg, po measured upto 24 hrs by LC-MS/MS analysis. It counts as ADME, organism-based. On the set-up: route oral, dose 10 mg/kg, time <=24. The settings on record: in vivo.
Data set [12] in a line: Oral bioavailability in Sprague-Dawley rat at 10 mg/kg measured upto 24 hrs by LC-MS/MS analysis. It is filed as ADME, organism-based. The settings on record: in vivo.
Data set [13] addresses T1, Receptor-interacting serine/threonine-protein kinase 1 (Homo sapiens, UniProt Q13546).
T1 sequence (Q13546 whole entry): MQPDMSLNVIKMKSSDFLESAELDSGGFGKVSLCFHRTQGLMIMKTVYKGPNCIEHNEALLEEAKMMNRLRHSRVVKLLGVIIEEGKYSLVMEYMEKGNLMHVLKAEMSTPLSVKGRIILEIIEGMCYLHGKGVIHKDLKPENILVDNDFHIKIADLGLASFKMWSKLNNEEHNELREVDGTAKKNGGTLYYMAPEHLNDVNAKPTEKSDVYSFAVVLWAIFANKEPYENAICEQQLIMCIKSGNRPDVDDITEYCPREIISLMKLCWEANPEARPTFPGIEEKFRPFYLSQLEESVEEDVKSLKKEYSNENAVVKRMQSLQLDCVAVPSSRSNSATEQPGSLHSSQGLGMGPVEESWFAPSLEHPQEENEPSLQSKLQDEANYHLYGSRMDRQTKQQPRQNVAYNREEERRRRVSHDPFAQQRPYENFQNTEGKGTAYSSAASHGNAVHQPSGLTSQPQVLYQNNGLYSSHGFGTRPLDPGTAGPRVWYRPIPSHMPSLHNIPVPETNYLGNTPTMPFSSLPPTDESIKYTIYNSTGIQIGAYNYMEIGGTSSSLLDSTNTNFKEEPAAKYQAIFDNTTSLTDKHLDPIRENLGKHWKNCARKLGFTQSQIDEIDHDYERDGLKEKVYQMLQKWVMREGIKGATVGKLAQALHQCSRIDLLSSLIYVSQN
Briefly: Binding affinity to wild-type human partial length RIPK1 (M1 to K305 residues) expressed in bacterial expression system measured after 1 hr by Kinomescan method.

The target of data set [14] is Receptor-interacting serine/threonine-protein kinase 3 (Homo sapiens) (UniProt Q9Y572). Briefly: Binding affinity to wild-type human partial length RIPK3 (M1 to Q307 residues) expressed in bacterial expression system at 10000 nM measured after 1 hr by Kinomescan method.
Data set [15] is described as follows: Toxicity in C57BL/6J mouse assessed as effect on body weight at 5 to 25 mg/kg, po administered daily for 7 days. It counts as organism-based. As to conditions: in vivo, 168 h, dose 5-25 mg/kg, time 7 day.
Data set [16] can be described thus: Toxicity in C57BL/6J mouse assessed as effect on heart morphological changes at 5 to 25 mg/kg, po administered daily for 7 days by Hand E staining method. It is filed as organism-based. The settings on record: in vivo, 168 h, dose 5-25 mg/kg, time 7 day.
Data set [17] in a line: Toxicity in C57BL/6J mouse assessed as effect on liver morphological changes at 5 to 25 mg/kg, po administered daily for 7 days by H and E staining method. It is filed as organism-based. As to conditions: in vivo, 168 h, dose 5-25 mg/kg, time 7 day.
Data set [18] in a line: Toxicity in C57BL/6J mouse assessed as effect on spleen morphological changes at 5 to 25 mg/kg, po administered daily for 7 days by H and E staining method. It is filed as organism-based. The settings on record: in vivo, 168 h, dose 5-25 mg/kg, time 7 day.
Data set [19] in a line: Toxicity in C57BL/6J mouse assessed as effect on kidney morphological changes at 5 to 25 mg/kg, po administered daily for 7 days by H and E staining method. It counts as organism-based. The settings on record: in vivo, 168 h, dose 5-25 mg/kg, time 7 day.
Data set [20] in a line: Half life in Sprague-Dawley rat at 2 mg/kg, iv measured upto 24 hrs by LC-MS/MS analysis. It counts as ADME, organism-based. The settings on record: in vivo.
Data set [21] can be described thus: Cmax in Sprague-Dawley rat at 10 mg/kg, po measured upto 24 hrs by LC-MS/MS analysis. It is filed as ADME, organism-based. More on the design: route oral, dose 10 mg/kg, time <=24. The settings on record: in vivo.
The nature of data set [22]: AUC (0 to 24 hrs) in Sprague-Dawley rat at 2 mg/kg, iv measured upto 24 hrs by LC-MS/MS analysis. It is filed as ADME, organism-based. On the set-up: route intravenous, dose 2 mg/kg, time <=24. The settings on record: in vivo.
Data set [23] can be described thus: Toxicity in C57BL/6J mouse assessed as effect on food intake at 5 to 25 mg/kg, po administered daily for 7 days. It is filed as organism-based. The settings on record: in vivo, 168 h, dose 5-25 mg/kg, time 7 day.
Data set [24] in a line: Protein binding in rat plasma assessed as unbound fraction by LC-MS/MS based equilibrium dialysis method. It counts as ADME, cell-free.

CYP2C19, sequence (P33261 whole entry): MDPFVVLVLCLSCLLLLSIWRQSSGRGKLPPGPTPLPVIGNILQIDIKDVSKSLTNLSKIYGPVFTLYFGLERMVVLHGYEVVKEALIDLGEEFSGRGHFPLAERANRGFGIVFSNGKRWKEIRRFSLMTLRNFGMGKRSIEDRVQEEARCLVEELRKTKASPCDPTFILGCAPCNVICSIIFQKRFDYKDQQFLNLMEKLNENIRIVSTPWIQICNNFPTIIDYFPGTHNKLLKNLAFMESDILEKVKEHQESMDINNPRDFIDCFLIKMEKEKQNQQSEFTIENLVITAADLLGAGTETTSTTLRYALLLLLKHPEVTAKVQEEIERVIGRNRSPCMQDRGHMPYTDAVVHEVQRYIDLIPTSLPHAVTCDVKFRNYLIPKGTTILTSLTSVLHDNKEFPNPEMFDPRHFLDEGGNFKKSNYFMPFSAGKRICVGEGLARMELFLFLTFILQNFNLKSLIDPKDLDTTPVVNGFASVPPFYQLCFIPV
CYP2D6, sequence (P10635 whole entry): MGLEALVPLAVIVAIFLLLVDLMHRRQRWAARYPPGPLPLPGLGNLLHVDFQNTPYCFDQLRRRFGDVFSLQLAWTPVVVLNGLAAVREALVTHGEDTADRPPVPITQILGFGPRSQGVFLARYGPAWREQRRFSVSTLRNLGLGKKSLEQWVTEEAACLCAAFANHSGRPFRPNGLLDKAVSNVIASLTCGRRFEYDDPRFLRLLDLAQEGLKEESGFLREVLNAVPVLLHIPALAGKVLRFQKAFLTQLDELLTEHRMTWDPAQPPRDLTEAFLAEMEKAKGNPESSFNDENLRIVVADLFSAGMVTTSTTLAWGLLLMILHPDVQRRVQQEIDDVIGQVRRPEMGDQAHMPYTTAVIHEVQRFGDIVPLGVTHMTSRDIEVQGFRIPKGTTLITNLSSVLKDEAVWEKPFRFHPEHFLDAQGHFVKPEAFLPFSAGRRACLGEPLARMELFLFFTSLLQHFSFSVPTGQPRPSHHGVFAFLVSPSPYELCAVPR
CYP3A4, sequence (P08684 whole entry): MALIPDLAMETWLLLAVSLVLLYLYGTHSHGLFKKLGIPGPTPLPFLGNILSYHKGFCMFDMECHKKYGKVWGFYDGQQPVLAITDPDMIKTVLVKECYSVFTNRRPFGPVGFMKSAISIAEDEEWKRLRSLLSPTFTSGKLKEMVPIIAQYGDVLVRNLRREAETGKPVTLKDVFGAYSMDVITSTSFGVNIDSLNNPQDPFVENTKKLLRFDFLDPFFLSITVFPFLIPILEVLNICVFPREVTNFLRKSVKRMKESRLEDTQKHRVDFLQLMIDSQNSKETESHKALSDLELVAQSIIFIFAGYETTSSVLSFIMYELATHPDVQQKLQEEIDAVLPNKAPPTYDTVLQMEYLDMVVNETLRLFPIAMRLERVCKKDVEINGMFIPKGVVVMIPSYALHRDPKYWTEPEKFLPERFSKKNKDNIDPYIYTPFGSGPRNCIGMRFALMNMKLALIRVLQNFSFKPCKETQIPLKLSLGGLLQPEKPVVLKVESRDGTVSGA
Receptor-interacting serine/threonine-protein kinase 3 (Homo sapiens), sequence (Q9Y572 whole entry, looked up, the tested form may be a part): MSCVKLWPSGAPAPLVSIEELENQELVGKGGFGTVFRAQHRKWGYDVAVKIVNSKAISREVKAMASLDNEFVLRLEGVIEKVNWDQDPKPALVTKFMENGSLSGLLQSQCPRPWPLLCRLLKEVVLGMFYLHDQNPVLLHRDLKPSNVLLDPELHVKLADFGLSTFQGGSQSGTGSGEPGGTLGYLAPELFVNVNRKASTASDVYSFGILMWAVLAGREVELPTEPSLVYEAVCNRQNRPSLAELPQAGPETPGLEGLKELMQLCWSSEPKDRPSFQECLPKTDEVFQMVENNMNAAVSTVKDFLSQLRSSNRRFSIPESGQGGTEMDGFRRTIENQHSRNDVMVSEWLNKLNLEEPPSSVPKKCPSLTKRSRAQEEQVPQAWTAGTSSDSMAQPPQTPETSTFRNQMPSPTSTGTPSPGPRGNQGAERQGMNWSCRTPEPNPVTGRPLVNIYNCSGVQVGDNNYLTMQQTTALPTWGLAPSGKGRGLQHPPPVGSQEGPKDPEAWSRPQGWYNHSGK
CYP2C9, sequence (P11712 whole entry): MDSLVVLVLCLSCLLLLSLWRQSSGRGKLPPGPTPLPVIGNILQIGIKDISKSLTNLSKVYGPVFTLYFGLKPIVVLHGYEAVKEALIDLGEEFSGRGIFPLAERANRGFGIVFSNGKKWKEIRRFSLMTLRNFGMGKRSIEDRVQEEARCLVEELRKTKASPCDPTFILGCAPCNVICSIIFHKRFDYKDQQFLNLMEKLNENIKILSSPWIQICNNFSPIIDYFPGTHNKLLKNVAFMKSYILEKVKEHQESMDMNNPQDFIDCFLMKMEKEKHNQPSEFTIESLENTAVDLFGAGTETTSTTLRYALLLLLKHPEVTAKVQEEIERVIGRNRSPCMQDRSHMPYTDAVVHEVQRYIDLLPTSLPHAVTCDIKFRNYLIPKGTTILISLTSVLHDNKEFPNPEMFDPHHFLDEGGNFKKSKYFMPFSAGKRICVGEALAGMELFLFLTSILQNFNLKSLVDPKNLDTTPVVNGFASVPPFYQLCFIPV

As to `Cc1ncc(-c2ccc3nc(NC(=O)C4CC4)sc3c2)cc1NC(=O)OC1CCOCC1`, the results for the Cmax in [1] and in data set [21] were 1330 ng/mL and 1240 ng/mL, respectively. Besides, the results for the EC50 in data set [2] and in data set [3] were 17 nM and 30 nM, respectively. Moreover, the half-life (usually how long it takes for the measured level to halve) in [4] is 1.48 h; in [20], 1 h. For the same compound, the inhibition – broadly, the percentage by which the read-out fell short of the control – at 20 min, 10 µM in data set [5] amounted to 62%; in data set [6], 41%; in data set [7] it was 21%; in [8], 17%. The results for the fraction unbound in [9] and in data set [24] were 0.016 and 0.018, respectively. In addition, in data set [10], the Tmax (as a rule, the time from dosing to the highest level) stood at 1.2 h. Further, the AUC in [11] and in data set [22] was 1208 ng·h/mL throughout. Moreover, the F in data set [12] came out at 63%. In data set [13], the Kd (commonly the concentration at which binding is half-saturated) was found to be 9.2 nM. Moreover, the outcome in data set [14] was inactive. Moreover, the Activity entry in [15], in data set [16], in data set [17], in data set [18], in [19] and in data set [23] was “Non-Toxic” each time.
